Laboratory results taken from a melting point compilation (Tetko et al.; mined from patent text by program, amines drawn as free bases though some values may be those of a salt).

melting point [°C]	Structure (SMILES)
208 to 210	CCCc1nc2c(N)nc(C)c(C)c2n1CC(C)(C)NC(=O)c1ccccc1
228 to 231	COc1cc2c(c(OC(C)=O)c1)C1CCC3(C)C(=O)C(O)CC3C1CC2 (configuration not stated)
162	COc1cc(OC)c(-c2csc(N)n2)cc1Cl
112 to 117	COCCn1cc(-c2ccccc2)n(C(=O)c2ccccc2)c1=O
150 to 152	CCC(=O)N1C(=O)C(=O)c2cc(F)ccc21
86	COc1cc(F)ccc1-c1ccc(S(=O)(=O)N2c3ccccc3CC2C(=O)NCCOc2ccc(C(=O)OC(C)(C)C)cc2)cc1 (configuration not stated)
200 to 202	N#Cc1ccc(S(=O)(=O)c2ccc(S(N)(=O)=O)s2)c(F)c1
152 to 156	COC1Nc2c(ccc(C)c2O)C(=O)N2CCCC12 (configuration not stated)
76 to 80	COc1cc(C[C@H](NC(=O)OC(C)(C)C)C(=O)O)cc(OC)c1OC
118 to 119	Nc1nc(Cl)cc(OC(F)F)n1
171 to 175	CC(=O)Oc1ccc2c(c1)C(=O)CC1C2CCC2(C)C(OC(C)=O)CCC12 (configuration not stated)
116 to 117	COc1ccc2cc([C@H](C)C(=O)OCCCN3C(=O)OC[C@H]3C(C)(C)SN=O)ccc2c1
127 to 130	CCn1c(C)nc2cc(C(F)(F)F)c(OC)cc21
211 to 212	C=CCNc1nc(NC)c2cc([N+](=O)[O-])ccc2n1
162 to 163	COC(=O)c1sc(N)cc1NC(C)=O
170	COCC(=O)OC[C@@H]1CC(c2ccc(-c3ccc(N4C[C@H](Cn5ccnn5)OC4=O)cc3F)cn2)=NO1
259 to 261	CCOCc1nc2c(N)nc3ccc(NC(=O)C(C)C)cc3c2n1CC(C)(C)O
58 to 59	COC(=O)C#CC(=O)c1ccc(Cl)c(Cl)c1
178 to 180	CNC(C)CCC1(C(N)=O)c2ccccc2-c2ccccc21 (configuration not stated)

melting point [°C]	Structure (SMILES)
180 to 182	CN1C(=O)CC(C(=O)Nc2ccc(F)cc2)C(=O)c2cc(F)ccc21 (configuration not stated)
73 to 75	CC(N)c1ccc2c(c1)CCCN2C(=O)OC(C)(C)C (configuration not stated)
167 to 168	CNc1cc(NS(=O)(=O)c2cccc(Cl)c2)nc(NC)n1
131	C=CCC(C(O)=Nc1cc(Cl)cc(Cl)c1)C(C)C(=O)O (configuration not stated)
174 to 176	COC(=O)c1ccc2c(c1)N(C(=O)c1ccc(C3CCCCC3)cc1)Cc1cccn1C2
197 to 207	COc1ccc(C(=CC(=O)N2CCOCC2)c2ccc(NC(=O)c3ccc(Cl)cc3)cc2)cc1OC
198 to 200	CCOC(=O)c1cn(-c2ccc([N+](=O)[O-])cc2)cn1
76 to 78	Cc1ccc(S(=O)(=O)NCCNC(C)C)cc1
102 to 103	CCOC(=O)c1cc(C)n(-c2cccnc2)c1-c1ccccc1
246 to 249	Nc1ccc(CN2CCNC(=O)C2=O)cc1
118 to 119	CC(c1ccc(Oc2ccccc2)cc1)N(O)C(N)=O (configuration not stated)
104 to 107	COc1cc2c(cc1OC)N(C(=O)CCSC(C)=O)C(C(=O)O)CC2 (configuration not stated)
160 to 163	O=C(O)C1(C(=O)Nc2ccc(F)cc2F)CC1
112 to 114	COc1ccc(OC(C)c2ccnc3ncnn23)cc1 (configuration not stated)
157 to 158	C=CC(=O)CC1CN=C(c2cc3cccc(N(C)S(=O)(=O)c4cccs4)c3[nH]2)S1 (configuration not stated)
92 to 94	CC(C)(C)c1cc(C=O)c(O)c(Br)c1Cl
112 to 113	CCOC(=O)Cn1c(-c2ccc(OC)c(OC)c2)cc(=Nc2c(C)cc(C)cc2C)n(C)c1=O
132 to 134	CCOC(=O)/C=C1\OC(=O)c2ccccc21
118	Cc1ccc(S(=O)(=O)Nc2ccc(F)cc2[N+](=O)[O-])cc1

melting point [°C]	Structure (SMILES)
140 to 141	Cc1sc(-c2ccccc2)nc1COc1ccc(COc2nn(C)cc2CC(=O)O)cn1
68 to 70	Oc1c(Cl)cc(-c2ccco2)cc1Cl
206 to 210	CC(C)c1ccccc1NN
196 to 198	COc1ccccc1NC(=O)c1nc2c(s1)CN(C)CC2
144	C=C(C(=O)O)c1ccccc1OC
141 to 143	CCS(=O)(=O)N[C@H](C(=O)NCCc1ccc(OC/C=C\c2ccc(Cl)cc2)c(OC)c1)C(C)C
149 to 150	O=C(C=C1CCCN1)c1cccs1
242 to 243	NC(=S)Nc1ccc(Br)cn1
254 to 255	O=C(O)c1ccc(-c2nnc(-c3ccc(C(F)(F)F)cc3)o2)c([N+](=O)[O-])c1
154 to 155	Cn1c(CNCC2(C)COC2)cc2cc(NC(=O)c3ccc(OCC4CC4)cc3)ccc21
210 to 214	CN(C)n1cc(C(=O)NCc2ccc(Cl)cc2)c(=O)c2cc(C#CCO)ccc21
162 to 163	CCCCCOc1cc2c(cc1/C=C/C=C/C(C)=C/C(=O)O)C(C)(C)CCC2(C)C
136 to 140	COc1cc(C=C(C(=O)NC2CCC(C)CC2)c2ccccc2)ccc1OC(C)=O (configuration not stated)
85 to 87	N#Cc1cc(N)ccc1N
53.8 to 54	COC(=O)c1cc2ccccc2o1
113 to 115	CCCc1c(OCCCOc2cc([N+](=O)[O-])c(Cl)cc2C)ccc(C(C)=O)c1O
347 to 349	Cc1ccccc1C=C1CCn2c1nc1ccc(C(N)=O)cc1c2=O
79 to 81	C[C@@H](O)[C@H]1C(=O)N(CC(=O)OC(C)(C)C)[C@@H]1C(=O)OC(C)(C)C

The next lines start with the molecule.

Structure (SMILES)	melting point [°C]
N=C(NCCCc1c[nH]cn1)NC1CCN(c2ccc(C3=NNC(=O)CC3CO)cc2[N+](=O)[O-])CC1 (configuration not stated)	135 to 137
Cc1nc2cc(Oc3cc(-c4ccc(C(F)(F)F)cc4)ccn3)ccc2s1	160 to 164
CN(C)C(=O)c1cc2n(n1)-c1ccc(Cl)cc1C(c1ccccc1)=NC2	176 to 178
COc1ccc(-c2nnc3c4ccccc4c(Nc4ccc(-c5nn[nH]n5)cc4)nn23)cc1	281 to 284
CC(C)n1nc(C#Cc2cccc(Cl)c2)ccc1=O	94 to 95
O=C1Nc2ccc(C(F)(F)F)cc2C1c1ncnc2nn(C3CCCCC3)cc12 (configuration not stated)	> 300
O=S(=O)(c1ccc(F)cc1)N1CCCC1c1cccs1 (racemic)	97
C=CCCOc1cc2c(c(Cl)c1Cl)C(=O)C(C)(C1CCCC1)C2 (configuration not stated)	63 to 65
C[C@@H]1N=C(c2ccccc2)c2cc(C#CCCCC(=O)O)ccc2N(C)C1=O	62 to 63
C=Cn1c(Cl)cc(Cl)c(O)c1=S	114
CC(C)n1nc(-c2nc(C#N)c(N)nc2-c2ccccc2)ccc1=O	231 to 233
Cc1c(C)c2c(c(C)c1OCc1ccccc1)CCC(C)(CN1CCN(CCOc3ccc(C=C4SC(=O)NC4=O)cc3)CC1)O2 (racemic)	192 to 194
OC(CCCn1ccnc1)c1ccccc1 (configuration not stated)	205 to 207
O=C1N(Cc2nc3cc(F)ccc3[nH]2)c2ccccc2C12COc1cc3c(cc12)OCO3 (configuration not stated)	138 to 142
O=C1OC2(CC(c3ccccc3)=NO2)c2ccccc21 (configuration not stated)	103 to 106
O=C(OCC1OC(n2ccc(=O)[nH]c2=O)C(OC(=O)c2ccccc2)C1OC(=O)c1ccccc1)c1ccccc1 (configuration not stated)	143 to 144
Cc1cc(-c2cnn3c(C(F)(F)F)cc(-c4ccc(Cl)c(C)c4)nc23)cc(C)n1	254
Cn1nnnc1CC(=S)NCCc1ccc(OCc2ccccc2)c(OCc2ccccc2)c1	110
Nc1nc2cc(Cl)c(Cl)cc2nc1-c1ccco1	222 to 223
Cc1cc(-n2cncn2)c2cccc(OCc3c(Cl)ccc(S(=O)(=O)N4CCC[C@H]4C(=O)N4CCN(c5ccccn5)CC4)c3Cl)c2n1	108
O=S(=O)(N[C@@H]1c2ccccc2CCC[C@H]1O)c1ccccc1 (relative stereo)	128
ON=C1CCCc2c1ccc1ccccc21	174 to 175
CNC1CCN(c2nc3ccccc3n2Cc2ccc(C#N)cc2)CC1	133

Structure (SMILES)	melting point [°C]
O=C(CNc1ccc2[nH]c(=O)oc2c1)N1CCC(Oc2ccc(Cl)cc2)CC1	180 to 183
COC(=O)c1cc(OCCCCCCOc2ccc(-c3ccccc3)cc2)ccc1OCc1ccccc1	85 to 87
Fc1cccc(F)c1-c1ccc2ncccc2c1	112 to 113
NC1COC2=CC3=C(OCCC3)C(=O)C21 (configuration not stated)	> 260
CCCCc1noc(-c2ccc(C=CC(=O)NCC3CCCC3(C)C)cc2)n1 (configuration not stated)	144 to 145
CCCCCCCNc1ccncc1	50 to 52
O=C1C(CCO)Oc2ccc(Cl)cc2N1Cc1cccc(Cl)c1 (configuration not stated)	90 to 92
COc1ccc(/C=C(\C#N)c2ccccc2Br)cc1OC1CCCC1	100 to 103
CN(C)Cc1csc(N(C)CC#CI)n1	98 to 100
CCCC(CCC)N(C[C@H]1CC[C@H](CN(C(=O)Nc2ccc(N(C)C)cc2)C(CCC)CCC)CC1)C(=O)Nc1ccc(N(C)C)cc1	173 to 176
Cn1c(COc2ccc(CC3SC(=O)NC3=O)cc2)nc2ccc(Oc3ccc(NC(=S)Nc4ccccc4)cc3)cc21 (configuration not stated)	130 to 131
S=C(N1CCC(c2ccccc2)(c2ccccc2)CC1)n1ccnc1	161 to 165
CC1N=C(c2ccccc2)OC(c2ccccc2)C1OC(=O)Nc1ccccc1 (configuration not stated)	150
N#CCCn1nc(-c2ccccc2)ccc1=O	103 to 104
N#CCn1nnc2cc3c(cc2c1=O)OC1CCCN1C3=O (configuration not stated)	210 to 212
O=Cc1cccc2cc3ccccc3cc12	126 to 128
O=C(O)CN1CCOCC1	169 to 170
CC(C)(C)C1(O)CCN(CC2c3ccccc3CCc3ccccc32)CC1	96 to 98.5
CC(C)(C)CNc1cc(NCC(C)(C)C)nc(Cl)n1	178 to 185
CCOc1nn(-c2ccc(C(F)(F)F)cn2)cc1CCCOc1cc(CCC(=O)O)n(-c2ccccc2)n1	121 to 122
COCn1c(C(O)(c2ccc(Cl)cc2)c2ccc(Cl)cc2)nc(C)c1C	151
Cc1ccc(-n2c(-c3sc(Nc4ccc(Cl)cc4)nc3-c3ccccc3)nc3ccccc3c2=O)cc1	> 275
O=C(Nc1cc2ncc(CN3CCCC3)cc2cc1F)c1ccc(Br)cc1F	149 to 151
